The text below walks through data of patent publication US20230406883A1, “COMPOUNDS AND THEIR USE IN TREATMENT OF TACHYKININ RECEPTOR MEDIATED DISORDERS” (Embark Biotech ApS, priority 2020, published 2023).

SMILES strings stand for the structures. pEC50: −log10 of the molar value. Where “and” joins values, the source holds several entries; their conditions need not be identical. Equal entries are not always repeated. Where two headings read alike, the source gives them in different places. Numbered stars: 1 amine (or outer) side, 2 acyl side, 3 side chain; on linkers, the order of the positions; unused ones are H or OH. Square brackets hold non-standard residues; d marks the D form. Peptide text beside a SMILES is read from it. * marks the point of attachment. C18 diacid = O=C(O)CCCCCCCCCCCCCCCCC(=O)*; γGlu = O=C(O)[C@H](CCC(=O)[*:2])N[*:1]; NMeL = CN[C@@H](CC(C)C)C(=O)O; hSer = N[C@@H](CCO)C(=O)O; Nle = CCCC[C@H](N)C(=O)O; AEEA = NCCOCCOCC(=O)O

In one experiment the target is T1, hNK3R (Homo sapiens, UniProt P29371).
T1 construct: host or cells: COS-7
T1 sequence (P29371 1-465): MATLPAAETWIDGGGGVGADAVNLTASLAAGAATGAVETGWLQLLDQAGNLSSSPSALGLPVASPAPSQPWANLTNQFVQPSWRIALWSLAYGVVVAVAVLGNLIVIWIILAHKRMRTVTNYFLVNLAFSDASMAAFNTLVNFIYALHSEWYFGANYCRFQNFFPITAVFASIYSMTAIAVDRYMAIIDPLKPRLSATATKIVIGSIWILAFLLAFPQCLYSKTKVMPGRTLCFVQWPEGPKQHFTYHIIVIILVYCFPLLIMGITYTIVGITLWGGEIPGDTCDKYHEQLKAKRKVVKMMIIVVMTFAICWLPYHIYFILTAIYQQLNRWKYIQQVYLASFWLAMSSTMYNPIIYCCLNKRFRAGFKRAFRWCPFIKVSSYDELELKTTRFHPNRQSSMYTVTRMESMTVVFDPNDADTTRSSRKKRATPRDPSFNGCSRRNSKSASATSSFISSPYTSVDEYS
The experiment is described as follows: IP3 assay (inositol trisphosphate, 3H-myoinositol) in transiently transfected COS-7 cells. Type of experiment: cell-based. The following applies: for pEC50: 0.2% ovalbumin buffer, read-out: hNK3, IP3 EC50. An outline of the steps: (§1)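 COS-7 cells were transiently transfected with receptor plasmid and labelled with ³H-myo-inositol. Cells were lysed in formic acid, and ³H-inositol phosphates were captured on SPA YSI beads and counted.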

Another experiment deals with T2, hNK1R (Homo sapiens, UniProt P25103).
T2 construct: host or cells: COS-7
The experiment is described as above. The format is cell-based. The following applies: for pEC50: 0.2% ovalbumin buffer. The method in brief:
as §1

A further experiment addresses T3, hNK2R (Homo sapiens, UniProt P21452).
T3 construct: host or cells: COS-7
T3 sequence (P21452 1-398): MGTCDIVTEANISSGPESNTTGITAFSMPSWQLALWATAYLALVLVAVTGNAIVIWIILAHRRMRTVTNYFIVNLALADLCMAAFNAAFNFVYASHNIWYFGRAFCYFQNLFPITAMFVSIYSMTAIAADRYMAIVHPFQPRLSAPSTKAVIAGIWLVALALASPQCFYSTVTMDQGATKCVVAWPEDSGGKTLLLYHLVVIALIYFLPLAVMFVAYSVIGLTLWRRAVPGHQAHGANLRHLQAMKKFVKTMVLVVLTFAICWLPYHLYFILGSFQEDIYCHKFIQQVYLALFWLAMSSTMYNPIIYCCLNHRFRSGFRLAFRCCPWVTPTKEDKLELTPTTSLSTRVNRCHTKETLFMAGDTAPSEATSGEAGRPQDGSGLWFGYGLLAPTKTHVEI
The description is as above. Type of experiment: cell-based. The following applies: COS-7 cells; for pEC50: 0.2% ovalbumin buffer; for hNK2R, IP3 Efficacy: figure legends: percent of 10^-6 M NKA. An outline of the steps:
as §1

Experiment [1] can be described thus: Energy expenditure and weight loss pharmacodynamics in DIO mice. Type of experiment: in vivo. Set-up: Energy expenditure efficacy (change relative to vehicle control) / Weight loss efficacy (change relative to vehicle control): concentration or dose not given beside the values. The following applies: for Energy expenditure EC50 / Energy expenditure efficacy (change relative to vehicle control) / Weight loss EC50 / Weight loss efficacy (change relative to vehicle control): daily s.c. injections for nine days. The protocol:
Indirect calorimetry was used to evaluate the ability of individual peptide analogues to dose-dependently increase energy expenditure (EE) we used metabolic cages and indirect calorimetry measured by the Promethion system. To this end, oxygen consumption was used as a surrogate measure for EE. Substrate preference (fat or carbohydrate) was evaluated using the respiratory exchange ratio (RER). In parallel, behavioral information such as walking distance and water and food intake were recorded.
Prior to experimentation, DIO mice were transferred to habituation cages for at least 10 days (5 days outside and at least 5 days in the Sable Systems gas analyzer module) to acclimatize. For all in vivo compound tests for EE evaluation, mice received subcutaneous injections between 2 and 4 pm.
Energy expenditure and weight loss pharmacodynamics: To evaluate the ability of individual peptide analogues to dose-dependently increase EE by indirect calorimetry in DIO mice. Body weights were monitored from beginning of habituation until end of experiment. After habituation, mice were treated with daily injections of NKA(4-10) analogues at four different doses or vehicle by daily subcutaneous injections for nine days.
EE increase over vehicle was calculated as percent of mean oxygen consumption over a 30-hour period after injection. Prior to injection peptide analogues were dissolved and diluted in in vivo buffer. In order to take into account, the different half-lives for the compounds tested, the doses for each compound were calculated based on the given compound's individual pk-profiles.

Setting [2] is: COS-7 cells, figure legends: percent of 10^-6 M NKA.

T2 sequence (P25103 whole entry): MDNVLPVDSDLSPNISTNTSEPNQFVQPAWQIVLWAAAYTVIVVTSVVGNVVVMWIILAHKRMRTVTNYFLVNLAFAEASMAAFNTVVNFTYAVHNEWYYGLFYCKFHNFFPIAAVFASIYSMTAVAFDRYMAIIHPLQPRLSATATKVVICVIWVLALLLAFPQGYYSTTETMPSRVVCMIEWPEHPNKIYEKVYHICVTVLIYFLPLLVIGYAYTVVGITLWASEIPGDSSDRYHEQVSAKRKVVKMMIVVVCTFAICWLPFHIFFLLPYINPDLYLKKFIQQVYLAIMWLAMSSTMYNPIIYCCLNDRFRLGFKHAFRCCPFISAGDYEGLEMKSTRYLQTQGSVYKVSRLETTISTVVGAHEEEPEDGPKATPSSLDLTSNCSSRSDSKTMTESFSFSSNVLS

Usually pEC50 stands for the negative decadic logarithm of the EC50, by convention in mol/L. As to `COCC[C@H](NC(=O)[C@H](CC(C)C)N(C)C(=O)CNC(=O)[C@@H](NC(=O)[C@H](Cc1ccccc1)NC(=O)[C@H](CCCCN)NC(=O)[C@H](CC(=O)O)NC(=O)COCCOCCNC(=O)COCCOCCNC(=O)CC[C@H](NC(=O)CCCCCCCCCCCCCCCCC(=O)O)C(=O)O)[C@@H](C)O)C(N)=O` [compound 383, *Asp;Lys;Phe;Thr;Gly;NmLeu;Metox;NH2] ({C18 diacid-γGlu-AEEA-AEEA}-DKFTG[NMeL][hSer](Me)-NH2), the pEC50 at hNK3R (COS-7 cells) was 6.50. Further, the “hNK3, IP3 Efficacy” value at hNK3R (setting [2]) is recorded as 60%. At hNK1R (COS-7 cells), this compound had a negative-log EC50 (pEC50) of 6.54. The “hNK1R, IP3 Efficacy” value on hNK1R (setting [2]) came out at 50%. Also, at hNK2R, the negative-log EC50 (pEC50) was 8.80 and the “hNK2R, IP3 Efficacy” value came to 95%. In experiment [1], the “Energy expenditure EC50” value worked out at 110 nmol/kg, the “Energy expenditure efficacy (change relative to vehicle control)” value came to 11%, the “Weight loss EC50” value was 83 nmol/kg and the “Weight loss efficacy (change relative to vehicle control)” value is reported as 11%.

Compound `COCC[C@H](NC(=O)[C@H](CC(C)C)N(C)C(=O)CNC(=O)[C@@H](NC(=O)[C@H](Cc1ccc(O)cc1)NC(=O)[C@H](CCCCN)NC(=O)[C@H](CC(=O)O)NC(=O)COCCOCCNC(=O)COCCOCCNC(=O)CC[C@H](NC(=O)CCCCCCCCCCCCCCCCC(=O)O)C(=O)O)C(C)C)C(N)=O` [compound 344, *Asp;Lys;Tyr;Val;Gly;NmLeu;Metox;NH2] ({C18 diacid-γGlu-AEEA-AEEA}-DKYVG[NMeL][hSer](Me)-NH2) had a negative logarithm of the EC50 (pEC50) on hNK1R (COS-7 cells) of about 6.80. Moreover, at hNK1R (setting [2]), the “hNK1R, IP3 Efficacy” value was 30% and 50% and ~30%. At hNK2R, the negative-log EC50 (pEC50) is 8.66 and 8.51 and 8.30 and 8.49; the “hNK2R, IP3 Efficacy” value was 90% and 100% and 110%. Further, in experiment [1], the “Energy expenditure EC50” value stood at 13 nmol/kg, the “Energy expenditure efficacy (change relative to vehicle control)” value is given as 12%, the “Weight loss EC50” value was 130 nmol/kg and the “Weight loss efficacy (change relative to vehicle control)” value is recorded as 10%.

With `CCCC[C@H](NC(=O)[C@H](CC(C)C)N(C)C(=O)CNC(=O)[C@@H](NC(=O)[C@H](Cc1ccccc1)NC(=O)[C@H](CCCCN)NC(=O)[C@H](CC(=O)O)NC(=O)COCCOCCNC(=O)COCCOCCNC(=O)CC[C@H](NC(=O)CCCCCCCCCCCCCCCCC(=O)O)C(=O)O)C(C)C)C(N)=O` [compound 304, *Asp;Lys;Phe;Val;Gly;NmLeu;Nle;NH2], the “hNK3, IP3 Efficacy” value on hNK3R worked out at 100%. The negative logarithm of the EC50 (pEC50) on hNK3R (COS-7 cells) was 7.18 and 7.19 and 5.15 to 7.22. In addition, at hNK3R (setting [2]), the “hNK3, IP3 Efficacy” value was 65% and 60% and 85-100%. Besides, the pEC50 at hNK1R (COS-7 cells) was 7.47 and 7.40 and 6.60 to 7.92. Also, the “hNK1R, IP3 Efficacy” value at hNK1R (setting [2]) is 80% and 80-85%. Moreover, on hNK2R, the pEC50 was 8.68 and 7.96 to 9.00; the “hNK2R, IP3 Efficacy” value is 90% and 100% and 80-90%. In experiment [1], the “Energy expenditure EC50” value was 94 nmol/kg, the “Energy expenditure efficacy (change relative to vehicle control)” value is 11%, the “Weight loss EC50” value was 16 nmol/kg and the “Weight loss efficacy (change relative to vehicle control)” value was found to be 12%.

As for `CCCC[C@H](NC(=O)[C@H](CC(C)C)N(C)C(=O)CNC(=O)[C@@H](NC(=O)[C@H](Cc1ccc(O)cc1)NC(=O)[C@H](CCCCN)NC(=O)[C@H](CC(=O)O)NC(=O)COCCOCCNC(=O)COCCOCCNC(=O)CC[C@H](NC(=O)CCCCCCCCCCCCCCCCC(=O)O)C(=O)O)C(C)C)C(N)=O` [compound 305, *Asp;Lys;Tyr;Val;Gly;NmLeu;Nle;NH2] ({C18 diacid-γGlu-AEEA-AEEA}-DKYVG[NMeL][Nle]-NH2), at hNK3R (COS-7 cells), the negative-log EC50 (pEC50) was about 6.14. Moreover, on hNK1R, the “hNK1R, IP3 Efficacy” value is 17-50%. For the same compound, at hNK1R (COS-7 cells), the pEC50 is 6.28 and 5.46 to 6.35. In addition, the “hNK1R, IP3 Efficacy” value at hNK1R (setting [2]) is 30% and ~30%. For the same compound, the negative logarithm of the EC50 (pEC50) at hNK2R was 8.43 and 8.40 and 7.89 to 8.66. Moreover, in experiment [1], the “Reduced weight loss efficacy compared to compound 304, 344 and 383” value is listed as “approximately 50%”; the “Energy expenditure EC50” value is 34 nmol/kg; the “Energy expenditure efficacy (change relative to vehicle control)” value turned out to be 11%; the “Weight loss EC50” value is given as 69 nmol/kg. The “Weight loss efficacy (change relative to vehicle control)” value in experiment [1] turned out to be 6%.
